Data reported in paper PMC8447191, “Peptide Amphiphilic-Based Supramolecular Structures with Anti-HIV-1 Activity” (Bioconjugate Chemistry, 2021).
pIC50: −log10 of the molar value. Where two headings read alike, the source gives them in different places. *1 amine or outer side, *2 acyl side, *3 side chain or, on linkers, in order; H or OH if unused. Where a SMILES comes first, the peptide text is derived from it. Side-chain parts run from the residue outwards. The star is where a group is joined. PEG28 = NCCOCCOCCOCCOCCOCCOCCOCCOCCOCCOCCOCCOCCOCCOCCOCCOCCOCCOCCOCCOCCOCCOCCOCCOCCOCCOCCOCCOCCC(=O)O; NHOctadecyl = CCCCCCCCCCCCCCCCCCN*; Suc = O=C(CCC(=O)[*:2])[*:1]

How the values were obtained:
[1] = system: HIV-1BaL; format: cell-based; details: for pIC50 / IC95: HIV-1BaL, TZM-bl cells, peptide 10-0.00061 μM for 1 h at 37 °C before virus, luciferase after 48 h, sigmoid fit, mean of triplicates; for SI (CC50/IC50): ratio of CC50 (MTT assay) to IC50 (HIV-1BaL, TZM-bl cells)
Method: HIV-1BaL[52] was provided by the NIH AIDS Research & Reference Reagent Program (http://www.aidsreagent.org/). Viral stock was prepared by passage through activated PBMCs[53] for 11 days.
Luciferase-reporter HeLa cells stably transfected to express CD4 and CCR5; TZM-bl cells[54]−[56] were grown in Dulbecco’s Minimal Essential Medium (DMEM) (Sigma-Aldrich, Inc., St. Louis, MO) containing 10% fetal calf serum (FCS), 2 mM L-glutamine, and antibiotics (100 U of penicillin/mL, 100 μg of streptomycin/mL) at 37 °C in an atmosphere containing 5% CO2.
(§1) All inhibition assays in cellular and tissue explants models were performed using a standardized amount of virus culture supernatant normalized for infectivity. TZM-bl cells were incubated with serial dilutions of peptides (from 10 μM to 0.00061 μM) for 1 h at 37 °C, prior to challenge with HIV-1BaL. Luciferase expression (r.l.u. values) was determined after 48 h. Alternatively, tissue explants were incubated with serial dilutions of peptide (from 100 μM to 0.1 μM) for 1 h before virus (10^4 TCID50/mL) was added for 2 h. Explants were then washed four times with PBS to remove unbound virus and drug. Colorectal explants were then transferred onto gelfoam rafts (Welbeck Pharmaceuticals, UK) and cultured for 15 days as described previously[57] […]. Explants were cultured for up to 15 days in the absence of peptide. Approximately 50% of the supernatants were harvested every 2–3 days and explants were re-fed with fresh media. The extent of viral replication in tissue explants was determined by measuring the p24 antigen concentration in supernatants (INNOTEST HIV antigen mAb; Fujirebio Europe, Belgium). The extent of inhibition by each peptide was calculated. The percentage of inhibition was normalized relative to the r.l.u, for TZM-bl cells, or p24, for tissue explants, values obtained for cells or explants cultured in the absence of virus (100% inhibition) and for cells or explants infected with virus in the absence of peptide (0% inhibition). Data are the mean (±SEM) of triplicates. When a dose–response curve was obtained, IC50 and, if possible, IC95 values were calculated from sigmoid curve fits (GraphPad Prism). For all curves, R^2 is >0.7.

[2] = Visual stability and aspect of POPC vesicles mixed with PAs (SAXS samples); format: physicochemical; details: POPC 20 mM + 2 mM PA, 0.5% DMSO
Method: In Figure 5A,B, we show the spectra corresponding to POPC 20 mM and POPC 20 mM + 2 mM PAs (all of them in the presence of 0.5% DMSO). The band centered at 1.2 nm^–1 and the secondary band at 3.2 nm^–1 were typical of unilamellar vesicles.[35]
The incorporation of PAs had some distinct consequences. The first and more obvious one is the distinction between stable and unstable systems.

[3] = MTT cytotoxicity assay; format: cell-based; details: human, HeLa-env cells, PAs coassembled with 5% FAM, 40-2.3 μM, absorbance 560 nm
Method: The metabolic activity of the cell line, related to the cytotoxic effect of the compounds to be tested, is measured after 24 h using the MTT assay. This assay is based on the metabolic reduction of 3-(4,5-dimethylthiazol-2-yl)-2,5-diphenyl-2H-tetrazolium bromide (MTT), carried out by the mitochondrial enzyme succinate dehydrogenase, in a colored compound of blue color (formazan) that can be monitored by absorbance spectroscopy at 560 nm, allowing determination of the mitochondrial functionality of the treated cells.
The HeLa-env cell line is seeded in 96-well plates with an initial density of 15,000 cells per well in 100 μL of culture medium (Dulbecco’s modified Eagle’s medium, DMEM, with 10% FBS added) and incubated for 24 h at 37 °C and 5% CO2 to allow their adhesion. The cell monolayers are washed with PBS, and then 100 μL of PAs formulations (peptide amphiphiles coassembled with 5% FAM) are added in a concentration range from 40 μM to 2.3 μM. The plates are kept in incubation for further 24 h.
At the end of the incubation time, the cells are incubated for 3 h with 1 mg/mL of MTT, dissolved in culture medium without FBS, to allow the formation of formazan crystals. Subsequently, 100 μL of DMSO are added to wells, stirring the plates for 30 min at room temperature to facilitate the complete dissolution of the crystals. Finally, the absorbance at 560 nm is measured in a microplate reader.
The results are expressed as relative percentage between absorbance of PA formulations against absorbance of its DMSO controls and CC50 and CC25 values are taken from dose–response curves.

[4] = not given; remark: listed apart in the source
[5] = system: HIV-1BaL; format: cell-based; details: colorectal tissue explants, peptide 100-0.1 μM for 1 h before and 2 h during virus (pulse, 3 h), p24 ELISA at day 15, mean (SEM) of triplicates
Description: Human tissue explants: Surgically resected specimens of colorectal tissues were collected from HIV negative patients at St. Mary’s Hospital, Imperial College Healthcare NHS Trust, London, UK. All tissues were collected after receiving signed informed consent from all patients through the Imperial College Healthcare Tissue Bank approved by Research Ethics Committee Wales (IRAS 17/WA/0161). On arrival in the laboratory, resected tissue was cut into 2–3 mm^3 explants comprising both epithelial and muscularis mucosae as described previously.[57] Tissue explants were maintained with DMEM containing 10% fetal calf serum, 2 mM L-glutamine, and antibiotics (100 U of penicillin/mL, 100 μg of streptomycin/mL, 80 μg of gentamicin/mL) at 37 °C in an atmosphere containing 5% CO2.
as §1

Row | SMILES | Trp fluorescence emission maximum (λmax) [nm] | pIC50 [1] | IC95 [1] [µM] | stability / aspect of the sample [2] | CC50 at 24 h [3] [µM] | SI (CC50/IC50) [1] | lamellar characteristic distance [4] [nm] | pIC50 [5] | IC95 [5]
1 | CC[C@H](C)[C@H](NC(=O)[C@@H](NC(=O)CNC(=O)[C@H](CCCNC(=N)N)NC(=O)[C@H](Cc1c[nH]c2ccccc12)NC(=O)[C@H](Cc1ccccc1)NC(=O)[C@H](CC(=O)O)NC(=O)[C@H](Cc1ccccc1)NC(=O)[C@@H]1CCCN1C(=O)[C@@H](NC(=O)[C@H](CCCCN)NC(=O)[C@H](Cc1c[nH]c2ccccc12)NC(=O)[C@H](CC(C)C)NC(=O)[C@H](Cc1ccc(O)cc1)NC(=O)[C@H](CCC(=O)O)NC(=O)[C@H](CC(C)C)NC(=O)[C@@H](NC(=O)[C@@H](N)Cc1c[nH]c2ccccc12)[C@@H](C)CC)C(C)C)C(C)C)C(N)=O [E1P47] (H-WILEYLWKVPFDFWRGVI-NH2) | 356 | 5.14 | 28.21 |  |  |  |  |  | 
2 | CCCCCCCCCCCCCCCCCCNC(=O)CCC(=O)NCCOCCOCCOCCOCCOCCOCCOCCOCCOCCOCCOCCOCCOCCOCCOCCOCCOCCOCCOCCOCCOCCOCCOCCOCCOCCOCCOCCOCCC(=O)NCCCC[C@H](NC(=O)[C@@H](NC(=O)[C@@H](NC(=O)CNC(=O)[C@H](CCCNC(=N)N)NC(=O)[C@H](Cc1c[nH]c2ccccc12)NC(=O)[C@H](Cc1ccccc1)NC(=O)[C@H](CC(=O)O)NC(=O)[C@H](Cc1ccccc1)NC(=O)[C@@H]1CCCN1C(=O)[C@@H](NC(=O)[C@H](CCCCN)NC(=O)[C@H](Cc1c[nH]c2ccccc12)NC(=O)[C@H](CC(C)C)NC(=O)[C@H](Cc1ccc(O)cc1)NC(=O)[C@H](CCC(=O)O)NC(=O)[C@H](CC(C)C)NC(=O)[C@@H](NC(=O)[C@@H](N)Cc1c[nH]c2ccccc12)[C@@H](C)CC)C(C)C)C(C)C)[C@@H](C)CC)C(N)=O [C-PAmonoalkyl] (H-WILEYLWKVPFDFWRGVIK([PEG28-Suc-NHOctadecyl])-NH2) |  | 7.10 | 5.60 | bluish | 20 | 250 | 4.7 | 5.46 | 24.29 (3.61) μM
3 | CCCCCCCCCCCCCCCCCCNC(=O)CCC(=O)NCCOCCOCCOCCOCCOCCOCCOCCOCCOCCOCCOCCOCCOCCOCCOCCOCCOCCOCCOCCOCCOCCOCCOCCOCCOCCOCCOCCOCCC(=O)N[C@@H](Cc1c[nH]c2ccccc12)C(=O)N[C@H](C(=O)N[C@@H](CC(C)C)C(=O)N[C@@H](CCC(=O)O)C(=O)N[C@@H](Cc1ccc(O)cc1)C(=O)N[C@@H](CC(C)C)C(=O)N[C@@H](Cc1c[nH]c2ccccc12)C(=O)N[C@@H](CCCCN)C(=O)N[C@H](C(=O)N1CCC[C@H]1C(=O)N[C@@H](Cc1ccccc1)C(=O)N[C@@H](CC(=O)O)C(=O)N[C@@H](Cc1ccccc1)C(=O)N[C@@H](Cc1c[nH]c2ccccc12)C(=O)N[C@@H](CCCNC(=N)N)C(=O)NCC(=O)N[C@H](C(=O)N[C@H](C(N)=O)[C@@H](C)CC)C(C)C)C(C)C)[C@@H](C)CC [N-PAmonoalkyl] ({NHOctadecyl-Suc-PEG28}-WILEYLWKVPFDFWRGVI-NH2) |  | 6.70 | 5.87 | precipitated rather fast and made compact flocks | 17 | 85 |  | 6.55 | 2.53 (1.14) μM
